# Test results published in patent US9409907B2, “Inhibitor compounds” (Cancer Research Technology Limited, priority 2012, dated 2016).
# Molecular target: full length MPS1 (Homo sapiens (Human), UniProt P33981)
# Test: Measurement of inhibition of MPS1 kinase (Caliper EZ reader mobility-shift enzyme assay)
# Assay type: biochemical
# Settings: full length MPS1 12.5 nM or 3 nM, H236 peptide 5 μM, ATP 10 μM, 60 min at room temperature
# Description: Measurement of Inhibition of MPS1 Kinase
# The reaction was carried out for 60 min at room temperature and stopped by the addition of buffer (10 μl) containing 20 mM EDTA, 0.05% (v/v) Brij-35, in 0.1M HEPES-buffered saline (Free acid, Sigma, UK). The plate was read on a Caliper EZ reader II (Caliper Life Sciences).
# The % inhibition of the compounds is calculated relative to the means of selected control wells.
# Sequence of full length MPS1 (P33981 whole entry): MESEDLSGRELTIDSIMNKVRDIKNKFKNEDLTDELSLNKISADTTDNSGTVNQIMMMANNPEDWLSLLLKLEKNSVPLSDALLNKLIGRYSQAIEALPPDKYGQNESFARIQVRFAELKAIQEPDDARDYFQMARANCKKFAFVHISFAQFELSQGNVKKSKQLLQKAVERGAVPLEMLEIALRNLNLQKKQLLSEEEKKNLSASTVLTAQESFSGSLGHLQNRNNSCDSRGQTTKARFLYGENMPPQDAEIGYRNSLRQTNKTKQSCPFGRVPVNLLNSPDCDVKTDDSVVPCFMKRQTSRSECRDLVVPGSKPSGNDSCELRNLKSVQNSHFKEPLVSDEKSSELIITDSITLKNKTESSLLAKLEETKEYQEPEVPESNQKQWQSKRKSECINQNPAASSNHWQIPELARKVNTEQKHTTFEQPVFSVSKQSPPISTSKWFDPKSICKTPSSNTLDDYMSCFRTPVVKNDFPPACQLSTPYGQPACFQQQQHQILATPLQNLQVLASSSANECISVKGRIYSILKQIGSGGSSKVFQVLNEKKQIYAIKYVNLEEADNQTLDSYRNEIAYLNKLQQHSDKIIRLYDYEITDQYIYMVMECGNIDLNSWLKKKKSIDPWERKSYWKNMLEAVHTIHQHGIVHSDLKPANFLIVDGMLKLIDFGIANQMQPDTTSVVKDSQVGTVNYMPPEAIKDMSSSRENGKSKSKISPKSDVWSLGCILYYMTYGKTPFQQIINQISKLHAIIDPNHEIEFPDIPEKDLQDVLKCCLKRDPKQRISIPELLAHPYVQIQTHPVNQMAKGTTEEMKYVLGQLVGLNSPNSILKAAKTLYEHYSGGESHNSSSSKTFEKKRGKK
row,IC50 [nM],SMILES
1,8,"COCCNc1nccc2cnc(Nc3ccc(-c4cnn(C)c4)cc3OC)nc12 [Example 127, N^2-(2-Methoxy-4-(1-methyl-1H-pyrazol-4-yl)phenyl)-N^8-(2-methoxyethyl)pyrido[3,4-d]pyrimidine-2,8-diamine]"
2,4,"COc1cc(-c2cnn(C)c2)ccc1Nc1ncc2ccnc(NC(CO)CO)c2n1 [Example 130, 2-(2-(2-Methoxy-4-(1-methyl-1H-pyrazol-4-yl)phenylamino)pyrido[3,4-d]pyrimidin-8-ylamino)propane-1,3-diol]"
3,4,"COCC(CO)Nc1nccc2cnc(Nc3ccc(-c4cnn(C)c4)cc3OC)nc12 (centres unmarked) [Example 131, 3-Methoxy-2-(2-(2-methoxy-4-(1-methyl-1H-pyrazol-4-yl)phenylamino)pyrido[3,4-d]pyrimidin-8-ylamino)propan-1-ol]"
4,4,"COc1cc(-c2cnn(C)c2C)ccc1Nc1ncc2ccnc(NCC3(C)COC3)c2n1 [Example 146, N^2-(4-(1,5-dimethyl-1H-pyrazol-4-yl)-2-methoxyphenyl)-N^8-((3-methyloxetan-3-yl)methyl)pyrido[3,4-d]pyrimidine-2,8-diamine]"
5,2,"COc1cc(-c2cnn(C)c2C)ccc1Nc1ncc2ccnc(NCC(C)(C)OC)c2n1 [Example 147, N^2-(4-(1,5-dimethyl-1H-pyrazol-4-yl)-2-methoxyphenyl)-N^8-(2-methoxy-2-methylpropyl)pyrido[3,4-d]pyrimidine-2,8-diamine]"
6,3,"COc1cc(-c2cnn(C)c2C)ccc1Nc1ncc2ccnc(NCC3(C)CCOC3)c2n1 (centres unmarked) [Example 148, N^2-(4-(1,5-dimethyl-1H-pyrazol-4-yl)-2-methoxyphenyl)-N^8-((3-methyltetrahydrofuran-3-yl)methyl)pyrido[3,4-d]pyrimidine-2,8-diamine]"
7,3,"COc1cc(-c2nncn2C)ccc1Nc1ncc2c(C)cnc(NCC(C)(C)OC)c2n1 [Example 150, N^8-(2-methoxy-2-methylpropyl)-N^2-(2-methoxy-4-(4-methyl-4H-1,2,4-triazol-3-yl)phenyl)-5-methylpyrido[3,4-d]pyrimidine-2,8-diamine]"
8,2,"COc1cc(-c2nncn2C)ccc1Nc1ncc2c(C)cnc(NCC(C)(C)C)c2n1 [Example 151, N^2-(2-methoxy-4-(4-methyl-4H-1,2,4-triazol-3-yl)phenyl)-5-methyl-N^8-neopentylpyrido[3,4-d]pyrimidine-2,8-diamine]"
9,7,"CCn1cc(-c2ccc(Nc3ncc4ccnc(NCC(C)(C)OC)c4n3)c(OC)c2)cn1 [Example 152, N^2-(4-(1-ethyl-1H-pyrazol-4-yl)-2-methoxyphenyl)-N^8-(2-methoxy-2-methylpropyl)pyrido[3,4-d]pyrimidine-2,8-diamine]"
10,4,"COc1cc(C(=O)N2CC(OC)C2)ccc1Nc1ncc2ccnc(NCC(C)(C)C)c2n1 [Example 153, (3-methoxy-4-(8-(neopentylamino)pyrido[3,4-d]pyrimidin-2-ylamino)phenyl)(3-methoxyazetidin-1-yl)methanone]"
11,3,COc1cc(-c2cnc(C)n2C)ccc1Nc1ncc2cc(C)nc(NCC(C)(C)OC)c2n1 [Example 158]
12,3,"COc1nc(-c2cnc(C)n2C)ccc1Nc1ncc2ccnc(NCC(C)(C)OC)c2n1 [Example 162, N^2-(6-(1,2-Dimethyl-1H-imidazol-5-yl)-2-methoxypyridin-3-yl)-N^8-(2-methoxy-2-methylpropyl)pyrido[3,4-d]pyrimidine-2,8-diamine]"
13,2,"COc1cc(-c2nnnn2C)ccc1Nc1ncc2ccnc(NCC(C)(C)OC)c2n1 [Example 163, N^8-(2-Methoxy-2-methylpropyl)-N^2-(2-methoxy-4-(1-methyl-1H-tetrazol-5-yl)phenyl)pyrido[3,4-d]pyrimidine-2,8-diamine]"
14,3,"COc1nc(-c2cn(C)nc2C)ccc1Nc1ncc2ccnc(NCC(C)(C)OC)c2n1 [Example 164, N^2-(6-(1,3-Dimethyl-1H-pyrazol-4-yl)-2-methoxypyridin-3-yl)-N^8-(2-methoxy-2-methylpropyl)pyrido[3,4-d]pyrimidine-2,8-diamine]"

# The next lines start with the molecule.
row,SMILES,IC50 [nM]
1,"COc1cc(-c2cnn(C)c2)ccc1Nc1ncc2ccnc(NCC3(CO)COC3)c2n1 [Example 132, (3-((2-(2-Methoxy-4-(1-methyl-1H-pyrazol-4-yl)phenylamino)pyrido[3,4-d]pyrimidin-8-ylamino)methyl)oxetan-3-yl)methanol]",> 1000
2,"COc1cc(-c2cnn(C)c2)ccc1Nc1ncc2ccnc(N3CCC(CO)C3)c2n1 (centres unmarked) [Example 133, (1-(2-(2-Methoxy-4-(1-methyl-1H-pyrazol-4-yl)phenylamino)pyrido[3,4-d]pyrimidin-8-yl)pyrrolidin-3-yl)methanol]",3
3,"COc1cc(-c2cnn(C)c2)ccc1Nc1ncc2ccnc(N3CCCC(CO)C3)c2n1 (centres unmarked) [Example 134, (1-(2-(2-Methoxy-4-(1-methyl-1H-pyrazol-4-yl)phenylamino)pyrido[3,4-d]pyrimidin-8-yl)piperidin-3-yl)methanol]",4
4,"COc1cc(-c2cnn(C)c2)ccc1Nc1ncc2ccnc(N3CCOC(CO)C3)c2n1 (centres unmarked) [Example 135, (4-(2-(2-Methoxy-4-(1-methyl-1H-pyrazol-4-yl)phenylamino)pyrido[3,4-d]pyrimidin-8-yl)morpholin-2-yl)methanol]",4
5,"COc1cc(-c2cnn(C)c2)ccc1Nc1ncc2cc(C3CC3)nc(N3CCC4(COC4)C3)c2n1 [Example 136, 6-Cyclopropyl-N-(2-methoxy-4-(1-methyl-1H-pyrazol-4-yl)phenyl)-8-(2-oxa-6-azaspiro[3.4]octan-6-yl)pyrido[3,4-d]pyrimidin-2-amine]",93
6,"COc1cc(-c2cnn(C)c2)ccc1Nc1ncc2ccnc(N3CCC(OC)CC3)c2n1 [Example 138, N-(2-Methoxy-4-(1-methyl-1H-pyrazol-4-yl)phenyl)-8-(4-methoxypiperidin-1-yl)pyrido[3,4-d]pyrimidin-2-amine]",8
7,"COc1cc(-c2cnn(C)c2)ccc1Nc1ncc2ccnc(N3CCN(S(C)(=O)=O)CC3)c2n1 [Example 139, N-(2-Methoxy-4-(1-methyl-1H-pyrazol-4-yl)phenyl)-8-(4-(methylsulfonyl)piperazin-1-yl)pyrido[3,4-d]pyrimidin-2-amine]",6
8,"COc1cc(-c2cnn(C)c2)ccc1Nc1ncc2ccnc(N3CCC(C#N)CC3)c2n1 [Example 140, 1-(2-(2-Methoxy-4-(1-methyl-1H-pyrazol-4-yl)phenylamino)pyrido[3,4-d]pyrimidin-8yl)piperidine-4-carbonitrile]",4
9,"COc1cc(-c2cnn(C)c2)ccc1Nc1ncc2ccnc(NC[C@]3(C)CCOC3)c2n1 [Example 141, (S)—N^2-(2-methoxy-4-(1-methyl-1H-pyrazol-4-yl)phenyl)-N^3-((3-methyltetrahydrofuran-3-yl)methyl)pyrido[3,4-d]pyrimidine-2,8-diamine]",3
10,"COc1cc(-c2cnn(C)c2)ccc1Nc1ncc2ccnc(NC[C@@]3(C)CCOC3)c2n1 [Example 142, (R)—N^2-(2-methoxy-4-(1-methyl-1H-pyrazol-4-yl)phenyl)-N^3-((3-methyltetrahydrofuran-3-yl)methyl)pyrido[3,4-d]pyrimidine-2,8-diamine]",3
11,"COc1cc(-c2cnn(C)c2)ccc1Nc1ncc2ccnc(C3=CCOCC3)c2n1 [Example 144, 8-(3,6-Dihydro-2H-pyran-4-yl)-N-(2-methoxy-4-(1-methyl-1H-pyrazol-4-yl)phenyl)pyrido[3,4-d]pyrimidin-2-amine]",5
12,"COc1cc(-c2cnn(C)c2C)ccc1Nc1ncc2ccnc(N3CCC4(COC4)C3)c2n1 [Example 145, N-(4-(1,5-dimethyl-1H-pyrazol-4-yl)-2-methoxyphenyl)-8-(2-oxa-6-azaspiro[3.4]octan-6-yl)pyrido[3,4-d]pyrimidin-2-amine]",2
13,"COc1cc(C2CCOCC2)ccc1Nc1ncc2ccnc(NCC3(C)CCOC3)c2n1 (centres unmarked) [Example 154, N^2-(2-methoxy-4-(tetrahydro-2H-pyran-4-yl)phenyl)-N^8-((3-methyltetrahydrofuran-3-yl)methyl)pyrido[3,4-d]pyrimidine-2,8-diamine]",7
14,"COc1cc(-c2nncn2C)ccc1Nc1ncc2c(C)cnc(NCC3(C)COC3)c2n1 [Example 155, N^2-(2-methoxy-4-(4-methyl-4H-1,2,4-triazol-3-yl)phenyl)-5-methyl-N^8-((3-methyloxetan-3-yl)methyl)pyrido[3,4-d]pyrimidine-2,8-diamine]",4
15,"COc1cc(-c2nncn2C)ccc1Nc1ncc2c(C)cnc(NCC3(C)CCOC3)c2n1 (centres unmarked) [Example 156, N^2-(2-methoxy-4-(4-methyl-4H-1,2,4-triazol-3-yl)phenyl)-5-methyl-N^8-((3-methyltetrahydrofuran-3-yl)methyl)pyrido[3,4-d]pyrimidine-2,8-diamine]",5
16,"COc1cc(-c2nncn2C)ccc1Nc1ncc2c(C)cnc(N3CC4(CCOC4)C3)c2n1 [Example 157, N-(2-methoxy-4-(4-methyl-4H-1,2,4-triazol-3-yl)phenyl)-5-methyl-8-(6-oxa-2-azaspiro[3.4]octan-2-yl)pyrido[3,4-d]pyrimidin-2-amine]",6
17,"CCOc1cc(-c2cnn(C)c2)ccc1Nc1ncc2ccnc(N3CCC4(COC4)C3)c2n1 [Example 159, N-(2-ethoxy-4-(1-methyl-1H-pyrazol-4-yl)phenyl)-8-(2-oxa-6-azaspiro[3.4]octan-6-yl)pyrdio[3,4-d]pyrimidin-2-amine]",5
18,"CCOc1cc(-c2nncn2C)ccc1Nc1ncc2cc(C)nc(N3CC4(CCOC4)C3)c2n1 [Example 160, N-(2-ethoxy-4-(4-methyl-4H-1,2,4-triazol-3-yl)phenyl)-6-methyl-8-(6-oxa-2-azaspiro[3.4]octan-2-yl)pyrido[3,4-d]pyrimidin-2-amine]",3
